Read-outs that look alike come from different tables or passages of the source.
Experiments:
SOS1 = SOS1 (Homo sapiens (Human), UniProt Q07889); test: Ras-SOS interaction assay (HTRF); format: biochemical
[1] = test system: MIA PaCa-2 cells (K-Ras G12C); test: Ras-SOS cellular growth inhibition assay (CellTiter-Glo, 3D); format: cell-based; conditions: Homo sapiens
In short: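 Growth read by CellTiter-Glo luminescence about 5 days after dosing with 3-fold dilutions (9 points), added one day post-seeding. Cells: MIA PaCa-2, 3D culture on ultra-low-attachment surface, medium DMEM/Ham's F12 plus 10% FCS and 2.5% horse serum; IC50 by four-parameter fit.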

[2] = test system: NCI-H1975 cells (EGFR T790M L858R); test: EGFR-SOS cellular inhibition assay (CellTiter-Glo, 3D); format: cell-based; conditions: Homo sapiens
[3] = K-RasG13D utilized, read-out: IC50 inhibition of SOS
[4] = K-RasG13D, read-out: IC50 value against SOS1
[5] = MIA PaCa-2, 120 h, MIA PaCa-2, 3D proliferation, about 5 days, read-out: Bio-Cell-Prolif-3D (MiaPaca2 IC50)
[6] = 120 h, NCI-H1975, 3D proliferation, about 5 days, read-out: Bio-Cell-Prolif-3D (H1975 IC50)
[7] = MIA PaCa-2, MIA PaCa-2, read-out: IC50 in inhibiting MIA PaCa-2 cell growth
[8] = NCI-H1975, EGFR T790M L858R, read-out: IC50 in inhibiting growth of NCI-H1975 cell line

Sequence of SOS1 (Q07889 564-1049): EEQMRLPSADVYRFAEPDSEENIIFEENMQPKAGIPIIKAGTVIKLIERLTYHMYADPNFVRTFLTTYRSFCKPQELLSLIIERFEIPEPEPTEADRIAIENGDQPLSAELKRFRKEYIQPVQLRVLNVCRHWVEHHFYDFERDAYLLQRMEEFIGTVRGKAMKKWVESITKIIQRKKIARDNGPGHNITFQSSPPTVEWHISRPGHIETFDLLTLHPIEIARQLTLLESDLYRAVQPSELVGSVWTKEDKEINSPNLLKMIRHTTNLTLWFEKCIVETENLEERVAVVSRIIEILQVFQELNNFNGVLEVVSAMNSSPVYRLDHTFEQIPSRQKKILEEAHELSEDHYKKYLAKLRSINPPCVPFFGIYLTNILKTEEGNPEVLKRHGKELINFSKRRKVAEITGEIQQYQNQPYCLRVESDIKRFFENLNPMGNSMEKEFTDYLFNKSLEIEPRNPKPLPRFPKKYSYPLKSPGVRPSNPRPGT

For Cc1nc(N[C@H](C)c2cccc(C(F)F)c2F)c2cc(C3CCN(C)CC3)c(OC3CNC3)nc2n1 [Compound 253, (R)-7-(azetidin-3-yloxy)-N-(1-(3-(difluoromethyl)-2-fluorophenyl)ethyl)-2-methyl-6-(1-methylpiperidin-4-yl)pyrido[2,3-d] pyrimidin-4-amine], the IC50 (SOS1; [3]) was < 100 nM, the IC50 (SOS1; [4]) was < 50 nM and the IC50 [1, 5] was 1000 to 10000 nM. For the same molecule, the IC50 [2, 6] was 1000 to 10000 nM.
For COc1nc2nc(C)nc(N[C@H](C)c3cccc(C(F)F)c3F)c2cc1N1CCNCC1 [Compound 110, (R)-N-(1-(3-(difluoromethyl)-2-fluorophenyl)ethyl)-7-methoxy-2-methyl-6-(piperazin-1-yl)pyrido[2,3-d]pyrimidin-4-amine], the IC50 (SOS1; [3]) was < 100 nM, the IC50 [1, 5] was ≤ 1000 nM and the IC50 [2, 6] was ≤ 1000 nM.
Cc1nc(N[C@H](C)c2cccc(C(F)F)c2F)c2cc(C3CCN(C(C)C)CC3)c(Cl)nc2n1 [Compound 104, (R)-7-chloro-N-(1-(3-(difluoromethyl)-2-fluorophenyl)ethyl)-6-(1-isopropylpiperidin-4-yl)-2-methylpyrido[2,3-d]pyrimidin-4-amine] was tested, and the IC50 (SOS1; [3]) was < 100 nM, the IC50 (SOS1; [4]) was < 50 nM and the IC50 [1, 5] was ≤ 1000 nM. For the same molecule, the IC50 [1, 7] was < 500 nM, the IC50 [2, 6] was ≤ 1000 nM and the IC50 [2, 8] was < 500 nM.
For Cc1nc(N[C@H](C)c2cccc(C(F)F)c2F)c2cc(N3CCN(C(C)C)CC3)c(OCCN(C)C)nc2n1 [Compound 359, (R)-N-(1-(3-(difluoromethyl)-2-fluorophenyl)ethyl)-7-(2-(dimethylamino)ethoxy)-6-(4-isopropylpiperazin-1-yl)-2-methylpyrido[2,3-d] pyrimidin-4-amine], the IC50 (SOS1; [3]) was < 100 nM, the IC50 (SOS1; [4]) was < 50 nM and the IC50 [1, 5] was ≤ 1000 nM. For the same molecule, the IC50 [1, 7] was < 500 nM, the IC50 [2, 6] was ≤ 1000 nM and the IC50 [2, 8] was < 500 nM.
With Cc1nc(N[C@H](C)c2cccc(C(F)F)c2F)c2cc(C3CCS(=O)(=O)CC3)c(OCCN(C)C)nc2n1 [Compound 145, (R)-4-(4-((1-(3-(difluoromethyl)-2-fluorophenyl)-ethyl)amino)-7-(2-(dimethylamino)ethoxy)-2-methylpyrido[2,3-d]pyrimidin-6-yl)tetrahydro-2H-thiopyran 1,1-dioxide] the IC50 (SOS1; [3]) was < 100 nM, the IC50 (SOS1; [4]) was < 50 nM and the IC50 [1, 5] was ≤ 1000 nM. For the same molecule, the IC50 [1, 7] was < 500 nM, the IC50 [2, 6] was ≤ 1000 nM and the IC50 [2, 8] was < 500 nM.
COc1nc2nc(C)nc(N[C@H](C)c3cccc(C(F)(F)C(C)(C)OC4CN(C(C)C)C4)c3F)c2cc1N1CCN(C(C)C)CC1 [Compound 242, (R)-N-(1-(3-(1,1-difluoro-2-((1-isopropylazetidin-3-yl)oxy)-2-methylpropyl)-2-fluorophenyl)ethyl)-6-(4-isopropylpiperazin-1-yl)-7-methoxy-2-methylpyrido[2,3-d]pyrimidin-4-amine] was tested, and the IC50 (SOS1; [3]) was < 100 nM, the IC50 (SOS1; [4]) was < 50 nM and the IC50 [1, 5] was ≤ 1000 nM. The IC50 [1, 7] was < 500 nM, the IC50 [2, 6] was ≤ 1000 nM and the IC50 [2, 8] was < 500 nM.
For COc1nc2ncnc(N[C@H](C)c3cccc(C(F)(F)C4CCN(C(C)C)CC4)c3F)c2cc1C1CCN(C(C)C)CC1 [Compound 221, (R)-N-(1-(3-(difluoro(1-isopropylpiperidin-4-yl)methyl)-2-fluorophenyl)ethyl)-6-(1-isopropylpiperidin-4-yl)-7-methoxypyrido[2,3-d] pyrimidin-4-amine], the IC50 (SOS1; [3]) was < 100 nM, the IC50 (SOS1; [4]) was < 50 nM and the IC50 [1, 5] was ≤ 1000 nM. The IC50 [1, 7] was < 500 nM, the IC50 [2, 6] was ≤ 1000 nM and the IC50 [2, 8] was < 500 nM.
Cc1nc(N[C@H](C)c2cccc(C(F)(F)C3CCN(C(C)C)CC3)c2)c2cc(N3CCN(C(C)C)CC3)c(Cl)nc2n1 [Compound 293, (R)-7-chloro-N-(1-(3-(difluoro(1-isopropylpiperidin-4-yl)methyl)phenyl)ethyl)-6-(4-isopropylpiperazin-1-yl)-2-methylpyrido[2,3-d] pyrimidin-4-amine] was tested, and the IC50 (SOS1; [3]) was < 100 nM, the IC50 (SOS1; [4]) was < 50 nM and the IC50 [1, 5] was ≤ 1000 nM. For the same molecule, the IC50 [1, 7] was < 500 nM, the IC50 [2, 6] was ≤ 1000 nM and the IC50 [2, 8] was < 500 nM.
In the case of COc1nc2nc(C)nc(N[C@H](C)c3cccc(C(F)(F)CCC4CN(C(C)C)C4)c3F)c2cc1C1CCS(=O)(=O)CC1 [Compound 238, (R)-4-(4-((1-(3-(1,1-difluoro-3-(1-isopropylazetidin-3-yl)propyl)-2-fluorophenyl)ethyl)amino)-7-methoxy-2-methylpyrido[2,3-d]pyrimidin-6-yl)tetrahydro-2H-thiopyran 1,1-dioxide], the IC50 (SOS1; [3]) is reported as < 100 nM, the IC50 (SOS1; [4]) is reported as < 50 nM and the IC50 [1, 5] is reported as ≤ 1000 nM. The IC50 [1, 7] was < 500 nM, the IC50 [2, 6] was ≤ 1000 nM and the IC50 [2, 8] was < 500 nM.
For COc1nc2nc(C)nc(N[C@H](C)c3cccc(C(F)(F)C4CN(C)C4)c3)c2cc1N1CCS(=O)(=O)CC1 [Compound 272, (R)-4-(4-((1-(3-(difluoro(1-methylazetidin-3-yl)methyl)phenyl)ethyl)amino)-7-methoxy-2-methylpyrido[2,3-d]pyrimidin-6-yl)thiomorpholine 1,1-dioxide], the IC50 (SOS1; [4]) was < 50 nM, the IC50 [1, 5] was ≤ 1000 nM and the IC50 [2, 6] was ≤ 1000 nM. The IC50 [2, 8] was < 500 nM.
For COc1nc2nc(C)nc(N[C@H](C)c3cccc(C(F)(F)C(C)(C)O)c3F)c2cc1N1CCN(C)CC1 [Compound 323, (R)-1,1-difluoro-1-(2-fluoro-3-(1-((7-methoxy-2-methyl-6-(4-methylpiperazin-1-yl)pyrido[2,3-d]pyrimidin-4-yl)amino)ethyl)phenyl)-2-methylpropan-2-ol], the IC50 (SOS1; [3]) was < 100 nM, the IC50 (SOS1; [4]) was < 50 nM and the IC50 [1, 5] was ≤ 1000 nM. The IC50 [2, 6] was ≤ 1000 nM and the IC50 [2, 8] was < 500 nM.
Cc1nc(N[C@H](C)c2cccc(C(F)(F)[C@H](C)O)c2F)c2cc(C3(C#N)CC3)c(Cl)nc2n1 [Compound 258, 1-(7-chloro-4-(((R)-1-(3-((S)-1,1-difluoro-2-hydroxypropyl)-2-fluorophenyl)ethyl)amino)-2-methylpyrido[2,3-d]pyrimidin-6-yl)cyclopropane-1-carbonitrile] was tested, and the IC50 (SOS1; [3]) was < 100 nM, the IC50 (SOS1; [4]) was < 50 nM and the IC50 [1, 5] was ≤ 1000 nM. The IC50 [1, 7] was < 500 nM, the IC50 [2, 6] was ≤ 1000 nM and the IC50 [2, 8] was < 500 nM.
CNCCOc1nc2nc(C)nc(N[C@H](C)c3cccc(C(F)F)c3F)c2cc1C1CCN(C(C)C)CC1 [Compound 404, (R)-N-(1-(3-(difluoromethyl)-2-fluorophenyl)ethyl)-6-(1-isopropylpiperidin-4-yl)-2-methyl-7-(2-(methylamino)ethoxy)pyrido[2,3-d] pyrimidin-4-amine] was tested, and the IC50 (SOS1; [3]) was < 100 nM, the IC50 (SOS1; [4]) was < 50 nM and the IC50 [1, 5] was 1000 to 10000 nM. For the same molecule, the IC50 [2, 6] was 1000 to 10000 nM.
In the case of COc1nc2nc(OCC3CN(C)C3)nc(N[C@H](C)c3cccc(C(F)F)c3F)c2cc1C1(C#N)CC1 [Compound 203, (R)-1-(4-((1-(3-(difluoromethyl)-2-fluorophenyl)ethyl)amino)-7-methoxy-2-((1-methylazetidin-3-yl)methoxy)pyrido[2,3-d]pyrimidin-6-yl)cyclopropane-1-carbonitrile], the IC50 (SOS1; [3]) is reported as < 100 nM, the IC50 (SOS1; [4]) is reported as < 50 nM and the IC50 [1, 5] is reported as 1000 to 10000 nM. The IC50 [2, 6] was ≤ 1000 nM.
COc1nc2ncnc(N[C@H](C)c3cccc(C(F)(F)F)c3C)c2cc1N1CCN(C)CC1 [Compound 386, (R)-7-methoxy-N-(1-(2-methyl-3-(trifluoromethyl)phenyl)ethyl)-6-(4-methylpiperazin-1-yl)pyrido[2,3-d] pyrimidin-4-amine] was tested, and the IC50 (SOS1; [3]) was < 100 nM, the IC50 (SOS1; [4]) was < 50 nM and the IC50 [1, 5] was ≤ 1000 nM. For the same molecule, the IC50 [1, 7] was < 500 nM, the IC50 [2, 6] was ≤ 1000 nM and the IC50 [2, 8] was < 500 nM.
In the case of Cc1nc(N[C@H](C)c2cccc(C(F)(F)F)c2C)c2cc(N3CCS(=O)(=O)CC3)c(Cl)nc2n1 [Compound 390, (R)-4-(7-chloro-2-methyl-4-((1-(2-methyl-3-(trifluoromethyl)phenyl)ethyl)amino)pyrido[2,3-d]pyrimidin-6-yl) thiomorpholine 1,1-dioxide], the IC50 (SOS1; [3]) is reported as < 100 nM, the IC50 (SOS1; [4]) is reported as < 50 nM and the IC50 [1, 5] is reported as ≤ 1000 nM. For the same molecule, the IC50 [1, 7] was < 500 nM, the IC50 [2, 6] was ≤ 1000 nM and the IC50 [2, 8] was < 500 nM.
For Cc1nc(N[C@H](C)c2cccc(C(F)F)c2F)c2cc(N3CCS(=O)(=O)CC3)c(OC3COC3)nc2n1 [Compound 183, (R)-4-(4-((1-(3-(difluoromethyl)-2-fluorophenyl)ethyl)amino)-2-methyl-7-(oxetan-3-yloxy)pyrido[2,3-d]pyrimidin-6-yl)thiomorpholine 1,1-dioxide], the IC50 (SOS1; [3]) was < 100 nM, the IC50 (SOS1; [4]) was < 50 nM and the IC50 [1, 5] was 1000 to 10000 nM. For the same molecule, the IC50 [2, 6] was ≤ 1000 nM and the IC50 [2, 8] was < 500 nM.
CCN1CCN(c2cc3c(N[C@H](C)c4cccc(C(F)(F)F)c4C)ncnc3nc2OC)CC1 [Compound 198, (R)-6-(4-ethylpiperazin-1-yl)-7-methoxy-N-(1-(2-methyl-3-(trifluoromethyl)phenyl)ethyl)pyrido[2,3-d]pyrimidin-4-amine] was tested, and the IC50 (SOS1; [3]) was < 100 nM, the IC50 (SOS1; [4]) was < 50 nM and the IC50 [1, 5] was ≤ 1000 nM. For the same molecule, the IC50 [1, 7] was < 500 nM, the IC50 [2, 6] was ≤ 1000 nM and the IC50 [2, 8] was < 500 nM.
In the case of COc1nc2nc(C)nc(N[C@H](C)c3cccc(C(F)F)c3F)c2cc1[C@@H]1CCCN(C)C1 [Compound 134, N-((R)-1-(3-(difluoromethyl)-2-fluorophenyl)ethyl)-7-methoxy-2-methyl-6-((S)-1-methylpiperidin-3-yl)pyrido[2,3-d]pyrimidin-4-amine], the IC50 (SOS1; [3]) is reported as < 100 nM, the IC50 (SOS1; [4]) is reported as < 50 nM and the IC50 [1, 5] is reported as ≤ 1000 nM. The IC50 [1, 7] was < 500 nM, the IC50 [2, 6] was ≤ 1000 nM and the IC50 [2, 8] was < 500 nM.

— patent US11648254B2 (Kumquat Biosciences Inc., priority 2021, dated 2023)
